Experimental data reported in US12110293B2, “Substituted triazolo quinoxaline derivatives” (GRÜNENTHAL GMBH, priority 2018, dated 2024).

Target: T1, glucocorticoid receptor (Homo sapiens, UniProt P04150)
T1 construct: expressed in transfected cells
T1 sequence (P04150 524-758 limits assumed): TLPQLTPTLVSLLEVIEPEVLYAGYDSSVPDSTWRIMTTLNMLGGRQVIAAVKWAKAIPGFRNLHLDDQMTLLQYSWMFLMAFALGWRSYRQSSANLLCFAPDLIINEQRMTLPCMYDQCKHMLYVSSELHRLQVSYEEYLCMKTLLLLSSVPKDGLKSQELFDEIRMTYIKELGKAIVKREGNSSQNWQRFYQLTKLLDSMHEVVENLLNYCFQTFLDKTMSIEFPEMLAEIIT
Test: Agonistic mode of action on the glucocorticoid receptor (CHO-Gal4/GR luciferase reporter cell line)
Assay type: cell-based
Conditions: range class observed in the agonistic assay or the antagonistic assay (CHO-Gal4/GR reporter cells); table does not say which mode applies per example
Method in brief: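 Agonism measured as dose-dependent luciferase luminescence (FLIPR Tetra) from a GAL4-UAS reporter driven by GAL4 DBD fused to GR ligand-binding domain in stable CHO cells. Eight half-log doses, 10 μM to 0.003 μM final in 0.5% DMSO, quadruplicate, on cells seeded 24 h earlier at 5000/well; EC50 derived.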

| Compound | IC50 or EC50 (agonist or antagonist mode not specified) |
| --- | --- |
| COc1cc2c(c(F)c1-c1cccc3[nH]c(C(F)(F)F)cc13)-n1c(C)nnc1C(C)(C)N2 [Example 257, 9-Fluoro-7-methoxy-1,4,4-trimethyl-8-[2-(trifluoromethyl)-1H-indol-4-yl]-5H-[1,2,4]triazolo[4,3-a]quinoxaline] | 100 to 1000 nM |
| Cc1cc(-c2c(F)cc3c(c2F)-n2c(C)nnc2C(C)(C)N3)c2ccn(S(C)(=O)=O)c2c1 [Example 492, 7,9-Difluoro-1,4,4-trimethyl-8-(6-methyl-1-methylsulfonyl-1H-indol-4-yl)-5H-[1,2,4]triazolo [4,3-a]quinoxaline] | < 100 nM |
| Cc1c(-c2cccc3c2ccn3C)c(F)cc2c1-n1c(C)nnc1C(C)(C)N2 [Example 486, 7-Fluoro-1,4,4,9-tetramethyl-8-(1-methyl-1H-indol-4-yl)-5H-[1,2,4]triazolo[4,3-a]quinoxaline] | < 100 nM |
| Cc1c[nH]c2c(-c3c(C(F)F)cc4c(c3F)-n3c(C)nnc3C(C)(C)N4)cccc12 [Example 306, 7-(Difluoro-methyl)-9-fluoro-1,4,4-trimethyl-8-(3-methyl-1H-indol-7-yl)-5H-[1,2,4]triazolo[4,3-a]quinoxaline] | 100 to 1000 nM |
| Cc1nnc2n1-c1c(cc(F)c(-c3cccc4c3cnn4S(C)(=O)=O)c1C(F)(F)F)NC2(C)C [Example 446, 7-fluoro-1,4,4-trimethyl-8-(1-(methylsulfonyl)-1H-indazol-4-yl)-9-(trifluoromethyl)-4,5-dihydro-[1,2,4]triazolo[4,3-a]quinoxaline] | 100 to 1000 nM |
| Cc1nnc2n1-c1c(cc(F)c(-c3cccc4c3ccn4S(=O)(=O)C3CC3)c1C(F)F)NC2(C)C [Example 401, 8-[1-(Cyclopropylsulfonyl)-1H-indol-4-yl]-9-(difluoro-methyl)-7-fluoro-1,4,4-trimethyl-5H-[1,2,4]triazolo [4,3-a]quinoxaline] | 100 to 1000 nM |
| Cc1nnc2n1-c1c(cc(F)c(-c3cccc4c3ccn4S(=O)(=O)C(C)C)c1C(F)F)NC2(C)C [Example 400, 9-(Difluoro-methyl)-7-fluoro-8-[1-(isopropylsulfonyl)-1H-indol-4-yl]-1,4,4-trimethyl-5H-[1,2,4]triazolo [4,3-a]quinoxaline] | 1000 to 15000 nM |
| Cc1nnc2n1-c1c(cc(F)c(-c3cc(F)cc4c3ccn4CCO)c1C(F)(F)F)NC2(C)C [Example 447, 2-[6-Fluoro-4-[7-fluoro-1,4,4-trimethyl-9-(trifluoromethyl)-5H-[1,2,4]triazolo[4,3-a]quinoxalin-8-yl]-1H-indol-1-yl]-ethanol] | 100 to 1000 nM |
| Cc1c(-c2cc(F)cc3c2ccn3S(C)(=O)=O)ccc2c1-n1c(C)nnc1C(C)(C)N2 [Example 453, 8-(6-Fluoro-1-methylsulfonyl-1H-indol-4-yl)-1,4,4,9-tetramethyl-5H-[1,2,4]triazolo[4,3-a]quinoxaline] | < 100 nM |
| Cc1nnc2n1-c1c(cc(F)c(-c3ccc(F)c4[nH]ncc34)c1F)NC2(C)C [Example 501, 7,9-Difluoro-8-(7-fluoro-1H-indazol-4-yl)-1,4,4-trimethyl-5H-[1,2,4]triazolo[4,3-a]quinoxaline] | 100 to 1000 nM |
| Cc1n[nH]c2c(-c3c(F)cc4c(c3F)-n3c(C)nnc3C(C)(C)N4)cccc12 [Example 354, 7,9-Difluoro-1,4,4-trimethyl-8-(3-methyl-1H-indazol-7-yl)-5H-[1,2,4]triazolo[4,3-a]quinoxaline] | 100 to 1000 nM |
| Cc1nnc2n1-c1c(cc(F)c(-c3cccc4c3ccn4S(=O)(=O)CC3CC3)c1C(F)F)NC2(C)C [Example 502, 8-[1-(Cyclopropyl-methylsulfonyl)-1H-indol-4-yl]-9-(difluoro-methyl)-7-fluoro-1,4,4-trimethyl-5H-[1,2,4]triazolo[4,3-a]quinoxaline] | 100 to 1000 nM |
| Cc1c[nH]c2c(-c3c(OC(F)F)cc4c(c3F)-n3c(C)nnc3C(C)(C)N4)cc(F)cc12 [Example 267, 7-(Difluoro-methoxy)-9-fluoro-8-(5-fluoro-3-methyl-1H-indol-7-yl)-1,4,4-trimethyl-5H-[1,2,4]triazolo[4,3-a]quinoxaline] | 100 to 1000 nM |
| Cc1c(-c2cccc3c2cnn3S(C)(=O)=O)c(F)cc2c1-n1c(C)nnc1C(C)(C)N2 [Example 377, 7-Fluoro-1,4,4,9-tetramethyl-8-(1-methylsulfonyl-1H-indazol-4-yl)-5H-[1,2,4]triazolo[4,3-a]quinoxaline] | 100 to 1000 nM |
| CCc1c(-c2cccc3c2cnn3S(C)(=O)=O)c(F)cc2c1-n1c(C)nnc1C(C)(C)N2 [Example 51, 9-Ethyl-7-fluoro-1,4,4-trimethyl-8-(1-methylsulfonyl-1H-indazol-4-yl)-5H-[1,2,4]triazolo[4,3-a]quinoxaline] | 100 to 1000 nM |
| Cc1nnc2n1-c1c(cc(F)c(-c3cc(F)cc4c3ccn4S(C)(=O)=O)c1C(F)(F)F)NC2(C)C [Example 37, 7-fluoro-8-(6-fluoro-1-(methylsulfonyl)-1H-indol-4-yl)-1,4,4-trimethyl-9-(trifluoromethyl)-4,5-dihydro-[1,2,4]triazolo[4,3-a]quinoxaline] | < 100 nM |
| Cc1nnc2n1-c1c(cc(F)c(-c3cccc4c(C5CCC5)c[nH]c34)c1Cl)NC2(C)C [Example 41, 9-chloro-8-(3-cyclobutyl-1H-indol-7-yl)-7-fluoro-1,4,4-trimethyl-4,5-dihydro-[1,2,4]triazolo[4,3-a]quinoxaline] | < 100 nM |
| COCCn1ccc2c(-c3c(OC)cc4c(c3F)-n3c(C)nnc3C(C)(C)N4)cc(F)cc21 [Example 353, 9-Fluoro-8-[6-fluoro-1-(2-methoxy-ethyl)-1H-indol-4-yl]-7-methoxy-1,4,4-trimethyl-5H-[1,2,4]triazolo [4,3-a]quinoxaline] | 1000 to 15000 nM |
| CCS(=O)(=O)n1ccc2c(-c3c(F)cc4c(c3OC)-n3c(C)nnc3C(C)(C)N4)cc(F)cc21 [Example 362, 8-[1-(Ethylsulfonyl)-6-fluoro-1H-indol-4-yl]-7-fluoro-9-methoxy-1,4,4-trimethyl-5H-[1,2,4]triazolo[4,3-a]quinoxaline] | < 100 nM |
| Cc1nnc2n1-c1c(cc(F)c(-c3cc(F)cc4c3cnn4CCO)c1C(F)(F)F)NC2(C)C [Example 449, 2-[6-Fluoro-4-[7-fluoro-1,4,4-trimethyl-9-(trifluoromethyl)-5H-[1,2,4]triazolo[4,3-a]quinoxalin-8-yl]-1H-indazol-1-yl]-ethanol] | < 100 nM |
| CCc1c(-c2cc(F)cc3c2ccn3S(C)(=O)=O)c(F)cc2c1-n1c(C)nnc1C(C)(C)N2 [Example 46, 9-Ethyl-7-fluoro-8-(6-fluoro-1-methylsulfonyl-1H-indol-4-yl)-1,4,4-trimethyl-5H-[1,2,4]triazolo[4,3-a]quinoxaline] | < 100 nM |
| CCc1c(-c2cc(F)cc3c(C)c[nH]c23)c(F)cc2c1-n1c(C)nnc1C(C)(C)N2 [Example 47, 9-Ethyl-7-fluoro-8-(5-fluoro-3-methyl-1H-indol-7-yl)-1,4,4-trimethyl-5H-[1,2,4]triazolo[4,3-a]quinoxaline] | < 100 nM |
| Cc1nnc2n1-c1c(cc(F)c(-c3cccc4c3ccn4S(=O)(=O)C(C)C)c1F)NC2(C)C [Example 200, 7,9-Difluoro-8-[1-(isopropylsulfonyl)-1H-indol-4-yl]-1,4,4-trimethyl-5H-[1,2,4]triazolo[4,3-a]quinoxaline] | 1000 to 15000 nM |
| COc1cc2c(c(C)c1-c1cc(F)cc3c(C)c[nH]c13)-n1c(C)nnc1C(C)(C)N2 [Example 345, 8-(5-Fluoro-3-methyl-1H-indol-7-yl)-7-methoxy-1,4,4,9-tetramethyl-5H-[1,2,4]triazolo[4,3-a]quinoxaline] | 100 to 1000 nM |
| Cc1c[nH]c2c(-c3c(F)cc4c(c3F)-n3c(Cc5ccccc5)nnc3C(C)(C)N4)cccc12 [Example 68, 1-Benzyl-7,9-difluoro-4,4-dimethyl-8-(3-methyl-1H-indol-7-yl)-5H-[1,2,4]triazolo[4,3-a]quinoxaline] | 100 to 1000 nM |
| Cc1c(-c2cccc3c(C)n[nH]c23)c(Cl)cc2c1-n1c(C)nnc1C(C)(C)N2 [Example 368, 7-Chloro-1,4,4,9-tetramethyl-8-(3-methyl-1H-indazol-7-yl)-5H-[1,2,4]triazolo[4,3-a]quinoxaline] | 100 to 1000 nM |
| Cc1nnc2n1-c1c(cc(F)c(-c3cc(F)cc4c3ccn4S(C)(=O)=O)c1F)NC2(C)C [Example 3, 7,9-difluoro-8-(6-fluoro-1-(methylsulfonyl)-1H-indol-4-yl)-1,4,4-trimethyl-4,5-dihydro-[1,2,4]triazolo[4,3-a]quinoxaline] | < 100 nM |
| Cc1c(-c2cccc3c2ccn3S(C)(=O)=O)c(OC(F)F)cc2c1-n1c(C)nnc1C(C)(C)N2 [Example 318, 7-(Difluoro-methoxy)-1,4,4,9-tetramethyl-8-(1-methylsulfonyl-1H-indol-4-yl)-5H-[1,2,4]triazolo[4,3-a]quinoxaline] | 100 to 1000 nM |
| CCS(=O)(=O)n1ccc2c(-c3c(F)cc4c(c3C(F)(F)F)-n3c(C)nnc3C(C)(C)N4)cccc21 [Example 455, 8-[1-(Ethylsulfonyl)-1H-indol-4-yl]-7-fluoro-1,4,4-trimethyl-9-(trifluoromethyl)-5H-[1,2,4]triazolo[4,3-a]quinoxaline] | < 100 nM |
